This is an account of results in US9371365B2, “Modified compstatin with peptide backbone and C-terminal modifications” (The Trustees of the University of Pennsylvania, priority 2009, dated 2016).

The nature of data set [1]: In vivo retention: plasma half-life in baboons by LC-MS/MS. The arrangement: species or system baboon (P. Anubis). The following applies: P. Anubis, baboon (P. Anubis), in vivo, iv, 10 mg. How it is done:
A 96-well plate HLB Oasis 10 mg (Waters, Milford, Mass.) was employed for extraction. The SPE material was conditioned by addition of 500 μl of methanol followed by addition of 500 μL of milli-Q water. Sample was prepared by addition of the internal standard followed by 1:1 dilution with 4% H3PO4. After loading the sample, washing was carried out with 500 μL of 5% methanol in 0.1% formic acid. Sample was eluted with 150 μL of 65% methanol in 0.1% formic acid and collected in the collection plate. Solvent was evaporated to dryness in a speed-vac concentrator and reconstituted in 5% acetonitrile in 0.1% formic acid. Samples were kept at −20° C. until analysis.
Baboon plasma samples, 40 μL, were mixed with internal standard and dissolved 1:1 with 40 mM ammonium carbonate buffer. Rapigest detergent was added to a final concentration of 0.1%. Disulfide bridges were reduced in 5 mM DTT for 30 min at 60° C. Alkylation of cysteines was done by addition of iodoacetamide to a final concentration of 15 mM and incubation for 30 min in dark. The sample was enzymatically digested by addition of 16 μL of a 1 μG/μL trypsin solution and incubation overnight at 37° C. After that, the sample pH was lowered with 5% TFA to induce detergent degradation. To avoid nonspecific adsorption of very hydrophobic peptides, acetonitrile was added to 20%. The samples were centrifuged at 6° C. and 14000 rpm for 30 min and the supernatant was diluted with 0.1% formic acid to reduce acetonitrile concentration to 10% prior to filtration with a 10 kDa cut-off microcon centrifugal filter (Millipore, Billerica, Mass.). The filter was washed with 50 μL of 10% ACN in 0.1% formic acid and the collected sample was evaporated to dryness and reconstituted with 10% ACN in 0.1% formic acid.
LC-MS/MS analysis was performed on a SYNAPT HDMS (Waters, Milford, Mass.) controlled by MassLynx 4.1 software (Waters) and equipped with a nanoESI source. Each sample was injected in triplicate. A nanoACQUITY UPLC (Waters) system was used for peptide separation by reversed-phase liquid chromatography. After injection, analytes were trapped for 3 min with 3% mobile phase A (0.1% formic acid in water) at 5 μl/min on a 5 μm Symmetry C18 column (180 μm×20 mm, Waters) and further separated on a 1.7 μm BEH130 C18 column (75 μm×150 mm, Waters). The analytical column temperature was held at 35° C. Peptides were separated at flow rate 0.3 μl/min. The gradient was linear 3-40% B (0.1% formic acid in acetonitrile), either 50 min long, or 60 min for the digested samples. The capillary voltage was 3.2 kV, the cone voltage was 35 V and the source temperature was 100° C. [Glu1]-fibrinogen peptide was used for lock-mass correction with a sampling rate of 30 s. Mass spectra were acquired in positive mode over an m/z range 400-2000 Da at scan rate 0.6 s. The time window used for the MS/MS function was ±3 min of the retention time of the selected peptide. The presence of the analyte was confirmed by MS/MS. Selectivity was studied by analysis of blank samples to determine the presence of any interference coeluting with the analyte.
Juvenile baboons (P. Anubis, Baboon Research Resources, University of Oklahoma) weighing 5-8 kg were used. Three baboons were used for the study; one for each compound. All animals received a bolus dose of peptides (10 mg) by injection through the peripheral vein. […]

The next data set has as its target T1, C3b (Homo sapiens, UniProt P01024).
T1 construct: biotin (chemical biotinylation of C3b)
Kind of data set: SPR analysis of binding kinetics to immobilized C3b. How it is done:
(§1) The kinetics of the interaction between C3b and each compstatin analog was analyzed by SPR on a Biacore 3000 instrument (GE Healthcare Corp., Piscataway, N.J.) at 25° C. using PBS-T (10 mM sodium phosphate, 150 mM NaCl, 0.005% Tween-20, pH 7.4) as the running buffer, as described above. In brief, biotinylated C3b (30 μg/mL) was immobilized on a streptavidin-coated sensor chip, and a two-fold serial dilution series (1 μM-500 pM) of each analog was injected for 2 min at 30 μl/min, with a dissociation phase of 5-10 min. Peptide [Trp(Me)^4]-Ac-compstatin was included in each experimental series as an internal control and reference. Data analysis was performed using Scrubber (BioLogic Software, Campbell, Australia). The signals from an untreated flow cell and an ensemble of buffer blank injections were subtracted to correct for buffer effects and injection artifacts. Processed biosensor data were globally fitted to a 1:1 Langmuir binding model, and the equilibrium dissociation constant (KD) was calculated from the equation KD=kd/ka. Peptide solutions were injected in duplicate in every experiment, and each screening assay was performed at least twice.
as §1, with “in Example 1.” for “above.”, “μg/ml)” for “μg/mL)”, “Peptide [Trp(Me)^4]-Ac-compstatin was included in each experimental series as an internal control and reference.” left out

Each structure is given as a SMILES string.

T1 sequence (P01024 23-667 limits assumed): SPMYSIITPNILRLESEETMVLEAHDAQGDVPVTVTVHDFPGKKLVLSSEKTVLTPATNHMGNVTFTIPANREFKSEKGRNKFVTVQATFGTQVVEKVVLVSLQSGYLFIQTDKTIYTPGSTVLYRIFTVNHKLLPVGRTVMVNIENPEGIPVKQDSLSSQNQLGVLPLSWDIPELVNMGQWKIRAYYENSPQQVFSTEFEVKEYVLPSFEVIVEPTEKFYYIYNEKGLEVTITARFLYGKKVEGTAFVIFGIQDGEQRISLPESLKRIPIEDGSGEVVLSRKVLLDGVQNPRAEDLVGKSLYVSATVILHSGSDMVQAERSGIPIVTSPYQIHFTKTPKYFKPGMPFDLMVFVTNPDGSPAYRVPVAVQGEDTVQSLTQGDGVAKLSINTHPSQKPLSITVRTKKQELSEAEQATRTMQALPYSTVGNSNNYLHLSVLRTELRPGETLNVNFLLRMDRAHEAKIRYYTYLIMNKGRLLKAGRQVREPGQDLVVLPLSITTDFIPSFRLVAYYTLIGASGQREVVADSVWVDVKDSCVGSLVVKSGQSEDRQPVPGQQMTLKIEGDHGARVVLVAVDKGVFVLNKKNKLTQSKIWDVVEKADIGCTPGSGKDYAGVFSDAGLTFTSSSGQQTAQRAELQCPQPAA
T1 sequence (P01024 749-1663 limits assumed): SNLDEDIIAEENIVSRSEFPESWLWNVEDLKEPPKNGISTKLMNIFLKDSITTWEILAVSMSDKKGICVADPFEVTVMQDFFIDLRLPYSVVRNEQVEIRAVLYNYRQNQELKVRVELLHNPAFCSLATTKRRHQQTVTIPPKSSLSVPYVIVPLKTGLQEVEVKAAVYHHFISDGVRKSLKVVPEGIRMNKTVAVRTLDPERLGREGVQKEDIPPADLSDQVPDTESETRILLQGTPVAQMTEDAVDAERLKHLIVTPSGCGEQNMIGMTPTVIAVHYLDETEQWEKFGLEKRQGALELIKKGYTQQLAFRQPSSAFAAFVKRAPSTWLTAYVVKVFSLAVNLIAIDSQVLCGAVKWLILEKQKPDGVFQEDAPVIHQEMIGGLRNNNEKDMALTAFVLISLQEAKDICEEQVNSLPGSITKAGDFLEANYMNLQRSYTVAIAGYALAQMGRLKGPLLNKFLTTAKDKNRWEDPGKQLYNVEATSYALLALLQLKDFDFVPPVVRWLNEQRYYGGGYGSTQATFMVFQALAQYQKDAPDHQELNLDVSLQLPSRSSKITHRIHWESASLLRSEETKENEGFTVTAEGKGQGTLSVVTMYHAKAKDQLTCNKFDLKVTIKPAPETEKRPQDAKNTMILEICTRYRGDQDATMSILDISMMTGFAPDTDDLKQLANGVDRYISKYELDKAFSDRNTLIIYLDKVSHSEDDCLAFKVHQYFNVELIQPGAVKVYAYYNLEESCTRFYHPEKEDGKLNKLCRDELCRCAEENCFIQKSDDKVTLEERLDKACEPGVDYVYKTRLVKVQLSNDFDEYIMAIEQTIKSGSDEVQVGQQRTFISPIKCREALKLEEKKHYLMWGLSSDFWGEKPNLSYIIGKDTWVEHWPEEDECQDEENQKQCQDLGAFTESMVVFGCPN

As to `CC[C@H](C)[C@H](NC(=O)[C@@H]1CSSC[C@H](NC(=O)[C@@H](NC(C)=O)[C@@H](C)CC)C(=O)N[C@@H](C(C)C)C(=O)N[C@@H](Cc2cn(C)c3ccccc23)C(=O)N[C@@H](CCC(N)=O)C(=O)N[C@@H](CC(=O)O)C(=O)N[C@@H](Cc2c[nH]c3ccccc23)C(=O)N(C)CC(=O)N[C@@H](C)C(=O)N[C@@H](Cc2c[nH]cn2)C(=O)N[C@@H](CCCNC(=N)N)C(=O)N1)C(N)=O` [Peptide 17, Ac−Ic[CV(^1−MeW)QDW(^N−MeG)AHRC]I-NH2], the half-life in data set [1] is roughly 1 h. For the same compound, at C3b (SPR), the “fold stronger affinity than peptide 14” value stood at 2.7 fold. Further, at C3b (SPR, 25° C., PBS-T), the kd is 6.6 10^−3/s. Further, on C3b (SPR, Table 2-1), the Koff was 6.6 10^−3, s^−1 and the Kon is listed as 1.0 10^6, M^−1 · s^−1. Moreover, the kon at C3b (pH 7.4, read-out: ka) came to 1.5e+06 M⁻¹ s⁻¹. Further, on C3b (relative to peptide 14), the “rKD SPR” value turned out to be 2.7, the rka was 1.5 and the rkd was 1.7.
